Assays:
[1] = system: PMA-MAP kinase signalling pathway in C1.7W2 T cells; experiment: phosphorylation of p44/p42 MAP kinase in PMA-stimulated C1.7W2 T cells; format: cell-based, murine; settings: INCA6 pretreatment; 20 nM PMA 15 min
Method: Dephosphorylation of NFAT is evident in the shift of the stained NFAT band the sample from cells that were stimulated with ionomycin in the absence of inhibitor (FIG. 12A, lane 2). […] Activation of the latter pathway was monitored by examining phosphorylation of p44/p42 MAP kinase. For this assay the cells were pretreated and incubated as for the NFAT dephosphorylation assay, except that stimulation was for 15 min with 20 nM PMA. Cells were collected by centrifugation, lysed in Laemmli sample buffer, and analyzed by Western blotting with an anti-phospho-p44/p42 MAP kinase antibody (Cell Signaling Technology).

[2] = system: nuclear import of NFAT in C1.7W2 T cells; experiment: NFAT1 immune staining assay, nuclear import in C1.7W2 T cells; format: cell-based, murine; settings: INCA6 20 μM or 40 μM; CsA/FK506 1 μM/100 nM; 1 μM ionomycin 15 min
Method: For an immune staining assay, C1.7W2 T cells growing on coverslips in Dulbecco's modified Eagle medium, supplemented with 10% fetal calf serum, 10 mM HEPES, and 2 mM glutamine, at 37 C. were pretreated with medium alone, with INCA6 (20 μM or 40 μM), or with CsA/FK506 (1 μM/100 nM) for 10 min, then stimulated for an additional 15 min with 1 μM ionomycin, in medium alone or in the continued presence of inhibitor as appropriate. Medium was removed, and the cells were fixed, permeabilized, and stained using the anti-67.1 antiserum against NFAT1 (A Ho et al (1994) J Biol Chem 269, 28181-28186) and a fluorescent second antibody.

calcineurin = calcineurin (Homo sapiens, UniProt Q08209, L343A/M347D/Y341S); experiment: 1H NMR titration spectroscopy binding experiments; settings: 10 μM compound, 20 μM calcineurin, 25° C., buffered D2O
Method: T2-filtered ^1H NMR spectra were obtained on a Bruker Avance 600 instrument with CryoPhobe using low-power presaturation of residual water. Preacquisition delays included up to five spin echos to suppress fast-relaxing broad protein resonances and were times to yield in-phase signals for J-coupled spins. Chemical shifts were referenced to internal standard 5 μM 2,2-dimethylsilapentane-5-sulfonic acid (DSS).

[3] = target: T1, recombinant human calcineurin catalytic domain, calcineurin(2-347) (Homo sapiens, UniProt Q08209, L343A/M347D/Y341S); experiment: fluorescence polarization competition assay, displacement of OG-VIVIT from calcineurin; format: binding
T1 construct: GST (N, cleaved yes); made in house; host or cells: E. coli strain DH5α
Method: Samples were analyzed as described in the preceding paragraph, and the resulting polarization data were plotted against the concentration of unlabelled VIVIT peptide, as shown in FIG. 8B.
The library stocks were dissolved at a nominal concentration of 10 mM in DMSO, and formatted for convenient robotic transfer on 384-well plates at the Institute of Chemistry and Cell Biology, Harvard Medical School. To initiate the competition assay, 40 nl volumes were pin-transferred from each well of a library stock plate to the corresponding wells of an assay plate, utilizing a robotic device. After a minimum 10 min incubation at room temperature to allow the binding to reach equilibrium, fluorescence polarization data were collected employing an Analyst plate reader (Molecular Devices).
Stocks of candidate inhibitor compounds and their structural analogues were purchased from ChemBridge or Asinex. The structure and purity of individual compounds were verified by ^1H NMR, mass spectrometry, or thin-layer chromatography. […] INCA1, INCA2, and INCA6 can be represented generally as follows: […]

[4] = system: NFAT dephosphorylation by calcineurin in C1.7W2 T cells; experiment: ionomycin-induced NFAT dephosphorylation in C1.7W2 T cells, Western blot; format: cell-based, murine; settings: 1 μM ionomycin 15 min
Method: For the dephosphorylation assay, C1.7W2 T cells were pretreated in Dulbecco's modified Eagle medium, supplemented with 10% fetal calf serum, 10 mM HEPES, and 2 mM glutamine, at 37 C. with INCA6 (5-40 μM) for 10 min, then stimulated for an additional 15 min with 1 μM ionomycin in the continued presence of inhibitor. Control incubations omitted INCA6, ionomycin, or both. DMSO was present at equal concentrations in all incubations. Cells were collected by centrifugation and lysed in Laemmli sample buffer. Samples were analyzed by SDS-polyacrylamide gel electrophoresis according to Laemmli (U K Laemmli (1970) Nature 227, 680-685) using a 6% separating gel, transferred to nitrocellulose membrane, and probed with an antiserum to NFAT1.

[5] = system: cytokine mRNAs in C1.7W2 T cells; experiment: RNase protection assay of cytokine mRNAs in C1.7W2 T cells stimulated with PMA and ionomycin; format: cell-based, murine
Method: The effects of INCA6 on transcription were examined in the case of several cytokine mRNAs that are known targets of calcineurin-NFAT signalling. C1.7W2 T cells were preincubated for 10 min. in medium alone, in medium containing INCA6, or in medium containing CsA and FK506, then stimulated under conditions that normally initiate signalling through the calcium-calmodulin-calcineurin-NFAT pathway. Cells in control samples that had not been pretreated with inhibitor were left unstimulated, or were stimulated for 45 min with 20 nM PMA alone, or with 20 nM PMA and 1 μM ionomycin. Cells in parallel samples that had been pretreated for 10 min with inhibitor were then further incubated for 45 min without stimulation or with PMA and ionomycin, in the continued presence of inhibitor. At the end of the incubation, cells were harvested and total cellular RNA was extracted using Ultraspec RNA-binding resin (Biotecx Laboratories). Levels of cytokine mRNAs were analyzed by RNase protection assays performed with RiboQuant multiprobe kits (Pharmingen) following the instructions of the manufacturer. Briefly, for each sample 10 μg of target RNA was hybridized overnight to a ^32P-labelled RNA probe that had been synthesized in vitro from a template set representing multiple murine cytokine mRNAs, and then the unhybridized probe and other single-stranded RNAs were digested with RNases. The protected RNAs were purified, and probes for the individual cytokine mRNAs were resolved on a denaturing 6% polyacrylamide gel. Transcript levels were quantified by autoradiography and by use of a phosphorimager (Molecular Dynamics). Probes for the individual cytokine transcripts were identified by the length of the respective protected fragments. The results are presented in FIGS. 14A to 14C, which are pictures of RNA gel autoradiograms. Data were corrected for minor variations in RNA loading by normalizing the data for each sample to the intensity of the signal for the housekeeping transcripts L32 and GAPDH (see lower panels of FIGS. 14A, 14B, and 14C).

T1 sequence (Q08209 2-347 Y341S/L343A/M347D): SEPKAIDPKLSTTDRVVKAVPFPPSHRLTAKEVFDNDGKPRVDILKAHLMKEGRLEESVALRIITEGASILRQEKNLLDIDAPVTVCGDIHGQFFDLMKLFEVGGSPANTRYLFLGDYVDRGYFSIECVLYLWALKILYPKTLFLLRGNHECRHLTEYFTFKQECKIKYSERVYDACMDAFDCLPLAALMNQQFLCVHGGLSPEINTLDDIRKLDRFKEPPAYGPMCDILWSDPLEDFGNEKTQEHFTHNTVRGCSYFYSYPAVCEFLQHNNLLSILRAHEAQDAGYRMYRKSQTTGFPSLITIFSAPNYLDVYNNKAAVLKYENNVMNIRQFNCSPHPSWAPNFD
calcineurin, sequence (Q08209 2-347 Y341S/L343A/M347D limits assumed): as the sequence (Q08209 2-347 Y341S/L343A/M347D) above

O=C1C=CC(=O)C2=C1C1c3ccccc3C2c2ccccc21 [INCA6]
activation of the PMA-MAP kinase signalling pathway (phosphorylation of p44/p42 MAP kinase) [1]: not blocked | localization of NFAT immune staining in ionomycin-stimulated cells [2]: localized to the cytoplasm | binding to calcineurin in the absence of VIVIT peptide (calcineurin): direct molecular interaction | Ki [3]: 0.8 to 5 µM | displacement of OG-VIVIT from calcineurin ([3]; at high concentrations, 1 μM calcineurin, 60 nM OG-VIVIT): complete | IC50 ([3]; calcineurin-VIVIT peptide interaction, read-out: Estimated IC50): 17 µM | blockade of NFAT dephosphorylation in cells ([4]; 10 μM INCA6): partial | blockade of NFAT dephosphorylation in cells ([4]; 20 μM INCA6): nearly complete | blockade of NFAT dephosphorylation in cells ([4]; 40 μM INCA6): total | induction of GM-CSF mRNA ([5]; 20 μM INCA6, 20 nM PMA and 1 μM ionomycin 45 min): partially prevented | induction of lymphotactin (Ltn), MIP1β, and MIP-1α mRNAs ([5]; 20 μM INCA6, PMA and ionomycin): partially blocked | induction of TNFα mRNA ([5]; 20 μM or 40 μM INCA6, CsA/FK506, PMA and ionomycin): inhibited | induction of GM-CSF mRNA ([5]; 40 μM INCA6, CsA/FK506 1 μM/100 nM, PMA and ionomycin 45 min): fully blocked | induction of lymphotactin (Ltn), MIP1β, and MIP-1α mRNAs ([5]; 40 μM INCA6, CsA/FK506, PMA and ionomycin): fully blocked | induction of IFNγ mRNA ([5]; INCA6, CsA/FK506, PMA and ionomycin): inhibited | levels of TNFβ, RANTES, and IP-10 mRNAs ([5]; not downstream targets of NFAT): unaffected | basal level of GM-CSF mRNA ([5]; unstimulated cells): not affected

— patent US20040002117A1 (priority 1998, published 2004)
